We go through two compounds from ChEMBL document CHEMBL6114949, “Synthesis and physiological effects of new 4-aminophenol derivatives as paracetamol analogues” (Bioorg Med Chem Lett, 2025).

Series [1] has as its system Rattus norvegicus. Description: Antipyretic activity against LPS-induced polyphasic febrile response in rats assessed as suppression of rise in core body temperature at 180 mg/kg, po treated 40 mins prior to LPS addition and measured after 10 mins. Type of series: functional, organism-based. Particulars: time 50.0 min.
For series [2], the system named is Rattus norvegicus. The series can be described thus: Antipyretic activity against LPS-induced polyphasic febrile response in rats assessed as change in core body temperature at 180 mg/kg, po treated 40 mins prior to LPS addition and measured after 160 mins during phase 1 (reference value: 0.85 deg C). The format is functional, organism-based. Particulars: time 200.0 min.

Series [3] concerns Rattus norvegicus. Description: Antipyretic activity against LPS-induced polyphasic febrile response in rats assessed as suppression of rise in core body temperature at 180 mg/kg, po treated 40 mins prior to LPS addition and measured after 200 mins. The format is functional, organism-based. Particulars: time 240.0 min.
The subject of series [4] is Rattus norvegicus. Description: Antipyretic activity against LPS-induced polyphasic febrile response in rats assessed as suppression of rise in core body temperature at 180 mg/kg, po treated 40 mins prior to LPS addition and measured after 160 mins relative to control. The format is functional. The settings on record: time 200 min, 3.333 h.
Series [5] relates to Rattus norvegicus. Description: Antinociceptive activity in zymosan-induced rat arthritis model assessed as nociceptive response inhibition at 180 mg/kg, ig administered once daily for 7 days and measured 1 hr post-zymosan challenge on day 7 by Randall-Selitto test (reference value: -34.6%). The format is functional. The settings on record: po, 168 h, time 7 day.
The subject of series [6] is Rattus norvegicus. Description: Antinociceptive activity in zymosan-induced rat model of thermal nociceptive hypersensitivity assessed as nociceptive response inhibition at 180 mg/kg, ig administered once daily for 7 days and measured 1 hr post-zymosan challenge on day 7 by hot-plate test (reference value: -42.4%). The format is functional. The settings on record: po, 168 h, time 7 day. In general terms: Hot-plate and tail-flick tests time the reaction to a heat stimulus.

The nature of series [7]: Hepatotoxicity in zymosan-induced rat arthritis model assessed as effect on beam structure of liver at 180 mg/kg, ig administered once daily for 7 days by hematoxylin-eosin staining based histological analysis. The format is toxicity, organism-based. Particulars: in vivo, po, 168 h, time 7 day.
Series [8] is described as follows: Hepatotoxicity in zymosan-induced rat arthritis model assessed as effect on general architecture of liver at 180 mg/kg, ig administered once daily for 7 days by hematoxylin-eosin staining based histological analysis. Type of series: toxicity, organism-based. Particulars: in vivo, po, 168 h, time 7 day.
Series [9] in a line: Hepatotoxicity in zymosan-induced rat arthritis model assessed as effect on sinusoids elongation at 180 mg/kg, ig administered once daily for 7 days by hematoxylin-eosin staining based histological analysis. The format is toxicity, organism-based, Liver. The settings on record: in vivo, po, 168 h, time 7 day.
Series [10] can be described thus: Hepatotoxicity in zymosan-induced rat arthritis model assessed as effect on sinusoids arrangement at 180 mg/kg, ig administered once daily for 7 days by hematoxylin-eosin staining based histological analysis. The settings on record: in vivo, po, 168 h, time 7 day. Type of series: toxicity, organism-based, Liver.
Series [11] can be described thus: Hepatotoxicity in zymosan-induced rat arthritis model assessed as change in hepatocyte shape at 180 mg/kg, ig administered once daily for 7 days by hematoxylin-eosin staining based histological analysis. Type of series: toxicity, organism-based, Liver. Particulars: in vivo, po, 168 h, time 7 day.
Series [12] in a line: Hepatotoxicity in zymosan-induced rat arthritis model assessed as disruption of hepatocyte membrane at 180 mg/kg, ig administered once daily for 7 days by hematoxylin-eosin staining based histological analysis. The format is toxicity, organism-based, Liver. Particulars: in vivo, po, 168 h, time 7 day.
Series [13] is described as follows: Hepatotoxicity in zymosan-induced rat arthritis model assessed as change in hepatocyte nucleus size at 180 mg/kg, ig administered once daily for 7 days by hematoxylin-eosin staining based histological analysis. The format is toxicity, organism-based, Liver. The settings on record: in vivo, po, 168 h, time 7 day.
Series [14] can be described thus: Hepatotoxicity in zymosan-induced rat arthritis model assessed as change in hepatocyte karyoplasm at 180 mg/kg, ig administered once daily for 7 days by hematoxylin-eosin staining based histological analysis. The format is toxicity, organism-based, Liver. Particulars: in vivo, po, 168 h, time 7 day.
The nature of series [15]: Hepatotoxicity in zymosan-induced rat arthritis model assessed as appearance of vacuoles in hepatocyte cytoplasm at 180 mg/kg, ig administered once daily for 7 days by hematoxylin-eosin staining based histological analysis. Type of series: toxicity, organism-based, Liver. Particulars: in vivo, po, 168 h, time 7 day.
The nature of series [16]: Hepatotoxicity in zymosan-induced rat arthritis model assessed as change in hepatocyte cytoplasmic appearance at 180 mg/kg, ig administered once daily for 7 days by hematoxylin-eosin staining based histological analysis. Type of series: toxicity, organism-based, Liver. Particulars: in vivo, po, 168 h, time 7 day.
A short description of series [17]: Hepatotoxicity in zymosan-induced rat arthritis model assessed as change in shape of liver central veins at 180 mg/kg, ig administered once daily for 7 days by hematoxylin-eosin staining based histological analysis. Type of series: toxicity, organism-based. The settings on record: in vivo, po, 168 h, time 7 day.
Series [18] is described as follows: Hepatotoxicity in zymosan-induced rat arthritis model assessed as change in shape of liver portal tracts at 180 mg/kg, ig administered once daily for 7 days by hematoxylin-eosin staining based histological analysis. Type of series: toxicity, organism-based. The settings on record: in vivo, po, 168 h, time 7 day.
For series [19], the system named is Rattus norvegicus. The series can be described thus: Antipyretic activity against LPS-induced polyphasic febrile response in rats assessed as suppression of rise in core body temperature at 240 mg/kg, po treated 40 mins prior to LPS addition and measured after 10 mins. Type of series: functional, organism-based. The settings on record: time 50.0 min.
Series [20] has as its system Rattus norvegicus. The series can be described thus: Antipyretic activity against LPS-induced polyphasic febrile response in rats assessed as change in core body temperature at 240 mg/kg, po treated 40 mins prior to LPS addition and measured after 160 mins during phase 1 (reference value: 0.85 deg C). The settings on record: time 200.0 min. Type of series: functional, organism-based.

Series [21] relates to Rattus norvegicus. The series can be described thus: Antipyretic activity against LPS-induced polyphasic febrile response in rats assessed as suppression of rise in core body temperature at 240 mg/kg, po treated 40 mins prior to LPS addition and measured after 200 mins. The format is functional, organism-based. The settings on record: time 240.0 min.
Series [22] relates to Rattus norvegicus. The series can be described thus: Antipyretic activity against LPS-induced polyphasic febrile response in rats assessed as suppression of rise in core body temperature at 240 mg/kg, po treated 40 mins prior to LPS addition and measured after 160 mins relative to control. The format is functional. The settings on record: time 200 min, 3.333 h.
Series [23] relates to Rattus norvegicus. The series can be described thus: Antinociceptive activity in zymosan-induced rat arthritis model assessed as nociceptive response inhibition at 240 mg/kg, ig administered once daily for 7 days and measured 1 hr post-zymosan challenge on day 7 by Randall-Selitto test (reference value: -34.6%). The format is functional. The settings on record: po, 168 h, time 7 day.

In series [24] the test system is Rattus norvegicus. Description: Antinociceptive activity in zymosan-induced rat model of thermal nociceptive hypersensitivity assessed as nociceptive response inhibition at 240 mg/kg, ig administered once daily for 7 days and measured 1 hr post-zymosan challenge on day 7 by hot-plate test (reference value: -42.4%). Type of series: functional. The settings on record: po, 168 h, time 7 day.

Series [25] can be described thus: Hepatotoxicity in zymosan-induced rat arthritis model assessed as effect on beam structure of liver at 240 mg/kg, ig administered once daily for 7 days by hematoxylin-eosin staining based histological analysis. Type of series: toxicity, organism-based. Particulars: in vivo, po, 168 h, time 7 day.
A short description of series [26]: Hepatotoxicity in zymosan-induced rat arthritis model assessed as effect on general architecture of liver at 240 mg/kg, ig administered once daily for 7 days by hematoxylin-eosin staining based histological analysis. The format is toxicity, organism-based. Particulars: in vivo, po, 168 h, time 7 day.
Series [27] in a line: Hepatotoxicity in zymosan-induced rat arthritis model assessed as effect on sinusoids elongation at 240 mg/kg, ig administered once daily for 7 days by hematoxylin-eosin staining based histological analysis. The format is toxicity, organism-based, Liver. Particulars: in vivo, po, 168 h, time 7 day.
Series [28] can be described thus: Hepatotoxicity in zymosan-induced rat arthritis model assessed as effect on sinusoids arrangement at 240 mg/kg, ig administered once daily for 7 days by hematoxylin-eosin staining based histological analysis. Particulars: in vivo, po, 168 h, time 7 day. Type of series: toxicity, organism-based, Liver.
Series [29] is described as follows: Hepatotoxicity in zymosan-induced rat arthritis model assessed as change in hepatocyte shape at 240 mg/kg, ig administered once daily for 7 days by hematoxylin-eosin staining based histological analysis. Particulars: in vivo, po, 168 h, time 7 day. Type of series: toxicity, organism-based, Liver.
Series [30] can be described thus: Hepatotoxicity in zymosan-induced rat arthritis model assessed as disruption of hepatocyte membrane at 240 mg/kg, ig administered once daily for 7 days by hematoxylin-eosin staining based histological analysis. The format is toxicity, organism-based, Liver. Particulars: in vivo, po, 168 h, time 7 day.
A short description of series [31]: Hepatotoxicity in zymosan-induced rat arthritis model assessed as change in hepatocyte nucleus size at 240 mg/kg, ig administered once daily for 7 days by hematoxylin-eosin staining based histological analysis. The settings on record: in vivo, po, 168 h, time 7 day. Type of series: toxicity, organism-based, Liver.
A short description of series [32]: Hepatotoxicity in zymosan-induced rat arthritis model assessed as change in hepatocyte karyoplasm at 240 mg/kg, ig administered once daily for 7 days by hematoxylin-eosin staining based histological analysis. Type of series: toxicity, organism-based, Liver. Particulars: in vivo, po, 168 h, time 7 day.
Series [33] is described as follows: Hepatotoxicity in zymosan-induced rat arthritis model assessed as appearance of vacuoles in hepatocyte cytoplasm at 240 mg/kg, ig administered once daily for 7 days by hematoxylin-eosin staining based histological analysis. The format is toxicity, organism-based, Liver. The settings on record: in vivo, po, 168 h, time 7 day.
The nature of series [34]: Hepatotoxicity in zymosan-induced rat arthritis model assessed as change in hepatocyte cytoplasmic appearance at 240 mg/kg, ig administered once daily for 7 days by hematoxylin-eosin staining based histological analysis. The format is toxicity, organism-based, Liver. The settings on record: in vivo, po, 168 h, time 7 day.
The nature of series [35]: Hepatotoxicity in zymosan-induced rat arthritis model assessed as change in shape of liver central veins at 240 mg/kg, ig administered once daily for 7 days by hematoxylin-eosin staining based histological analysis. Particulars: in vivo, po, 168 h, time 7 day. The format is toxicity, organism-based.
Series [36] can be described thus: Hepatotoxicity in zymosan-induced rat arthritis model assessed as change in shape of liver portal tracts at 240 mg/kg, ig administered once daily for 7 days by hematoxylin-eosin staining based histological analysis. The format is toxicity, organism-based. Particulars: in vivo, po, 168 h, time 7 day.

Activity calls are given as the source filed them. No cut-off for these calls is given here.

Regarding `CCCCCCCC(=O)Nc1ccc(OCC(=O)NCCO)cc1`, the result with Rattus norvegicus [1] and in the series with Rattus norvegicus [3] was Active. Moreover, the ΔTm with Rattus norvegicus [2] came to 0.28 °C. In addition, the “fold change (FC)” value in the series with Rattus norvegicus [4] was found to be 3. Also, the figures for the inhibition in vivo at 180 mg/kg in the series with Rattus norvegicus [5] and in the series on Rattus norvegicus [6] were 48.1% and 12.3%, respectively. In addition, the Activity entry in series [7], in [8], in series [9], in series [10], in series [11] and in [12] was “Non-toxic” in each case. The Activity entry in [13], in series [14], in series [15], in [16], in [17] and in series [18] was “Non-toxic” each time.

For the compound `CCCCCCCCCCCCCCCC(=O)Nc1ccc(OCC(=O)NCCO)cc1`, the outcome in the series on Rattus norvegicus [19] and with Rattus norvegicus [21] was Active. Also, in the series on Rattus norvegicus [20], the ΔTm was found to be 0.28 °C. In the series on Rattus norvegicus [22], the “fold change (FC)” value was 3. Besides, the values for the inhibition in vivo at 240 mg/kg in the series on Rattus norvegicus [23] and in the series on Rattus norvegicus [24] were 23.1% and 29.8%, respectively. In addition, the Activity result in series [25], in series [26], in series [27], in [28], in series [29] and in [30] was “Non-toxic” each time. In addition, the Activity entry in [31], in series [32], in series [33], in series [34], in [35] and in [36] was “Non-toxic” in each case.

The ΔTm is the shift of the melting midpoint relative to a reference. As a reminder, the inhibition in vivo is the change of the read-out against control, counted positive when it falls.
